Consider 31 compounds from patent US12570671B2 (BRISTOL-MYERS SQUIBB COMPANY, priority 2020, dated 2026).

For test [1], the target named is Helios (Homo sapiens, UniProt Q96SW2+Q9UKS7). In words: Helios Cellular Degradation Assay (Helios readout). It counts as cell-based. Also noted: endogenous in cells; host or cells: Jurkat. The following applies: Jurkat cells, 72 h incubation, Helios-PE antibody staining, flow cytometry; read-out: Helios Jurkat IC50. In a few lines:
(§1)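 Jurkat cells (80,000/well, RPMI+10% FBS) were treated with compound for 72 h at 37° C. After fixation and permeabilization they were stained with fluorescent antibodies to Helios, Ikaros and Aiolos. Intracellular protein levels were quantified by flow cytometry.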

Test [2] concerns the target Ikaros (Homo sapiens, UniProt Q13422+Q96SW2). Description: Helios Cellular Degradation Assay (Ikaros readout). It counts as cell-based. Also on record: endogenous in cells; host or cells: Jurkat. The following applies: Jurkat cells, 72 h incubation, Ikaros-Alexa488 antibody staining, flow cytometry; read-out: Ikaros Jurkat IC50. The gist of the method: as §1
For orientation: Flow cytometry measures light scatter and fluorescence of single cells or particles in a stream.

SMILES strings stand for the structures.

Ikaros, sequence (Q13422 whole entry): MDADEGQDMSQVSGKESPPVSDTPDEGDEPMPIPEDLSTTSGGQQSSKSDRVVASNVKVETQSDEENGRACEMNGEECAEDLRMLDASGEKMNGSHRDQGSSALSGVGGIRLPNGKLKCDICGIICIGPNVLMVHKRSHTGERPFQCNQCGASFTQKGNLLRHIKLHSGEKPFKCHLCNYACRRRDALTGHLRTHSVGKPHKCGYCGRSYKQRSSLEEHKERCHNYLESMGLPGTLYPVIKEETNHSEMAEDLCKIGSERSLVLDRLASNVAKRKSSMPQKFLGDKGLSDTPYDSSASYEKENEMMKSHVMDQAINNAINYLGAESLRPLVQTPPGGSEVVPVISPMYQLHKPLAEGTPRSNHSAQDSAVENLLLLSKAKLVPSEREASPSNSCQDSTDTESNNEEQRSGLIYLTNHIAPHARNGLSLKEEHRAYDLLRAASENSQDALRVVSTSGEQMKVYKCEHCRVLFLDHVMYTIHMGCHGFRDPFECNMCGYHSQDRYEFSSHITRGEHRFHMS
Ikaros, sequence (Q96SW2 whole entry): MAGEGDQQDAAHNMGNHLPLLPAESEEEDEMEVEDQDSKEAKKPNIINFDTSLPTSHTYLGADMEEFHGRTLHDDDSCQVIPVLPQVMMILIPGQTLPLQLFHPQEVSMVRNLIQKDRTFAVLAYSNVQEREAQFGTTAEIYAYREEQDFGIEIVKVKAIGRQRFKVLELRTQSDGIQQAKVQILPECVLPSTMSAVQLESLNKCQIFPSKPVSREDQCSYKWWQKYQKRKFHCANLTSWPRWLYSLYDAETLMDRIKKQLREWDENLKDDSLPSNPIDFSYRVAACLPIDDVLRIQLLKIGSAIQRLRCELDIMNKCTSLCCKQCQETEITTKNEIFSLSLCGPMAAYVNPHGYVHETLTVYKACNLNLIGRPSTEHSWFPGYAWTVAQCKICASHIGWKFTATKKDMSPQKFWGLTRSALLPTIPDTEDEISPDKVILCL
Ikaros, sequence (Q16531 whole entry partner): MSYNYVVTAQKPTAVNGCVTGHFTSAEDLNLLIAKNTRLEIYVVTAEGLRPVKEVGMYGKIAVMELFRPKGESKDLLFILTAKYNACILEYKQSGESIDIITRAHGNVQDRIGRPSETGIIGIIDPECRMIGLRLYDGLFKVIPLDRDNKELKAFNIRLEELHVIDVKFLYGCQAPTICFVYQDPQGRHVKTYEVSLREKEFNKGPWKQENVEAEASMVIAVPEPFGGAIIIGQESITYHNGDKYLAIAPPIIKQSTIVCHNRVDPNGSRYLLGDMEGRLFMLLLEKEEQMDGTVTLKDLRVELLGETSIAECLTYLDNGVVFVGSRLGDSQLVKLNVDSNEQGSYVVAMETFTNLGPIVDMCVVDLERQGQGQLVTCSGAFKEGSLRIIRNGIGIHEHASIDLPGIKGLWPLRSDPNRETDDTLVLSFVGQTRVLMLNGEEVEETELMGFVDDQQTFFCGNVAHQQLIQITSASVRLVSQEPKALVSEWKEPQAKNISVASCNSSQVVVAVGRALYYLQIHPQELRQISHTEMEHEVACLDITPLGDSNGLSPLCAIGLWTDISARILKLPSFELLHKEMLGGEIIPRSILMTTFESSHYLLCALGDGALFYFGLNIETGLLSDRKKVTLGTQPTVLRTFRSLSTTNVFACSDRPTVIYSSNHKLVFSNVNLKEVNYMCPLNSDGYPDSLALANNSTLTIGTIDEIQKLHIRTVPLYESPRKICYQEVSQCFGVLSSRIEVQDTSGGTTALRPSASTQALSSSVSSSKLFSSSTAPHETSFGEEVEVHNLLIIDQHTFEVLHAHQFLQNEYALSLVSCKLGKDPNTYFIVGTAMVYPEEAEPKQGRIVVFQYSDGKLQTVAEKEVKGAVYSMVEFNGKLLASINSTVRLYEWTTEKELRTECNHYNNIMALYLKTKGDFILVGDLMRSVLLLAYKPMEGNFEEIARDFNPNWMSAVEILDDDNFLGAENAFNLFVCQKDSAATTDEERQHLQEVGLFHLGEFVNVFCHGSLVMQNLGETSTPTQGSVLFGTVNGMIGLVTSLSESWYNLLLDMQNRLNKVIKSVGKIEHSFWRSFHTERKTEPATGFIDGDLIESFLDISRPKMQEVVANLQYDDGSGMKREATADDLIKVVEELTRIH
Helios, sequence (Q9UKS7 whole entry): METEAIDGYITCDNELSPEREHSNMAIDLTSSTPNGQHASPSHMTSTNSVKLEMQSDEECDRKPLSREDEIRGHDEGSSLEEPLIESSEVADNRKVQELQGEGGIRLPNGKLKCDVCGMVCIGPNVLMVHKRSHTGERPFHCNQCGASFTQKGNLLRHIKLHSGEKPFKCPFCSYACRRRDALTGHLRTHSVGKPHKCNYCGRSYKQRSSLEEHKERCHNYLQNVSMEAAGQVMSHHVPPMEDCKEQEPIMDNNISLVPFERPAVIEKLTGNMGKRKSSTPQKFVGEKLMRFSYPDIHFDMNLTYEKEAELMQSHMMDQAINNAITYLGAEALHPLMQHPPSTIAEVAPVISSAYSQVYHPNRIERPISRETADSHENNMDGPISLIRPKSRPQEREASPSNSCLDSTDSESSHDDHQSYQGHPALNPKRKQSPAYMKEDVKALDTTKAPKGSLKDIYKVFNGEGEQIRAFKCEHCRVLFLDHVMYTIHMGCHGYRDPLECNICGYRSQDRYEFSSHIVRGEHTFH
Helios, sequence (Q96SW2 whole entry): as the sequence (Q96SW2 whole entry) above
Helios, sequence (Q16531 whole entry partner): as the sequence (Q16531 whole entry partner) above

Turning to `Nc1nc(-c2ccc3c(c2)CN(C2CCC(=O)NC2=O)C3=O)nc2ccccc12` (centres unmarked) [Example 22, 3-[5-(4-aminoquinazolin-2-yl)-1-oxo-2,3-dihydro-1H-isoindol-2-yl]piperidine-2,6-dione], the values for the DC50 in test [1] and in test [2] were 0.008 µM and above 20 µM, respectively.

Take `Cc1cc2ccccc2nc1-c1ccc2c(c1)CN(C1CCC(=O)NC1=O)C2=O` (centres unmarked) [Example 32, 3-[5-(3-methylquinolin-2-yl)-1-oxo-2,3-dihydro-1H-isoindol-2-yl]piperidine-2,6-dione]: the DC50 in test [1] was 0.48 µM; in test [2], above 20 µM.

As to `O=C1CCC(N2Cc3cc(-c4cc(O)c5ccccc5n4)ccc3C2=O)C(=O)N1` (centres unmarked) [Example 37, 3-[5-(4-hydroxyquinolin-2-yl)-1-oxo-2,3-dihydro-1H-isoindol-2-yl]piperidine-2,6-dione], the DC50 was 2.4 µM in test [1] and above 20 µM in test [2].

In the case of `Cc1ccc(-c2ccc3c(c2)CN(C2CCC(=O)NC2=O)C3=O)nc1N` (centres unmarked) [Example 116, 3-(5-(6-amino-5-methylpyridin-2-yl)-1-oxoisoindolin-2-yl)piperidine-2,6-dione], the values for the DC50 in test [1] and in test [2] were 0.17 µM and at least 10 µM, respectively.

With `O=C1CCC(N2Cc3cc(-c4nccc5ccccc45)ccc3C2=O)C(=O)N1` (centres unmarked) [Example 66, 3-[5-(isoquinolin-1-yl)-1-oxo-2,3-dihydro-1H-isoindol-2-yl]piperidine-2,6-dione], the DC50 in test [1] came out at 0.006 µM; in test [2] it was 0.025 µM.

Take `CCNc1nc2ccccc2nc1-c1ccc2c(c1)CN(C1CCC(=O)NC1=O)C2=O` (centres unmarked) [Example 95, 3-(5-(3-(ethylamino)quinoxalin-2-yl)-1-oxoisoindolin-2-yl)piperidine-2,6-dione]: the DC50 came to 0.11 µM in test [1] and 0.31 µM in test [2].

As for `COc1cc(C#N)c(N)nc1-c1ccc2c(c1)CN(C1CCC(=O)NC1=O)C2=O` (centres unmarked) [Example 181, 2-amino-6-(2-(2,6-dioxopiperidin-3-yl)-1-oxoisoindolin-5-yl)-5-methoxynicotinonitrile], the DC50 in test [1] is 0.14 µM; in test [2], at least 10 µM.

Regarding `Cc1cc(-c2ccc3c(c2)CN(C2CCC(=O)NC2=O)C3=O)nc(N)c1C#N` (centres unmarked) [Example 148, 2-amino-6-(2-(2,6-dioxopiperidin-3-yl)-1-oxoisoindolin-5-yl)-4-methylnicotinonitrile], the results for the DC50 in test [1] and in test [2] were 0.01 µM and at least 10 µM, respectively.

With `O=C1CCC(N2Cc3cc(-c4cc5c(cn4)CCCC5)ccc3C2=O)C(=O)N1` (centres unmarked) [Example 115, 3-(1-oxo-5-(5,6,7,8-tetrahydroisoquinolin-3-yl)isoindolin-2-yl)piperidine-2,6-dione], the figures for the DC50 in test [1] and in test [2] were 0.1 µM and 0.16 µM, respectively.

As for `CNc1nc(-c2ccc3c(c2)CN(C2CCC(=O)NC2=O)C3=O)cc2ncccc12` (centres unmarked) [Example 51, 3-{5-[5-(Methylamino)-1,6-naphthyridin-7-yl]-1-oxo-2,3-dihydro-1H-isoindol-2-yl}piperidine-2,6-dione], the DC50 was 0.026 µM in test [1] and above 20 µM in test [2].

Turning to `CC(=O)N1CCN(c2cc(N)nc(-c3ccc4c(c3)CN(C3CCC(=O)NC3=O)C4=O)c2)CC1` (centres unmarked) [Example 186, 3-(5-(4-(4-acetylpiperazin-1-yl)-6-aminopyridin-2-yl)-1-oxoisoindolin-2-yl)piperidine-2,6-dione], the DC50 in test [1] and in test [2] was at least 10 µM each time.

Take `COc1ccc2nc(-c3ccc4c(c3)CN(C3CCC(=O)NC3=O)C4=O)ccc2c1` (centres unmarked) [Example 29, 3-[5-(6-methoxyquinolin-2-yl)-1-oxo-2,3-dihydro-1H-isoindol-2-yl]piperidine-2,6-dione]: the DC50 in test [1] is 0.025 µM; in test [2] it was above 20 µM.

In the case of `CN(C)c1cnc(-c2ccc3c(c2)CN(C2CCC(=O)NC2=O)C3=O)c2cc(Cl)ccc12` (centres unmarked) [Example 129, 3-{5-[7-chloro-4-(dimethylamino)isoquinolin-1-yl]-1-oxo-2,3-dihydro-1H-isoindol-2-yl}piperidine-2,6-dione], the DC50 was found to be 0.01 µM in test [1] and 0.09 µM in test [2].

For `N#CCc1ccnc(-c2ccc3c(c2)CN(C2CCC(=O)NC2=O)C3=O)c1` (centres unmarked) [Example 111, 2-(2-(2-(2,6-dioxopiperidin-3-yl)-1-oxoisoindolin-5-yl)pyridin-4-yl)acetonitrile], the DC50 in test [1] is 0.93 µM; in test [2], at least 10 µM.

As for `O=C1CCC(N2Cc3cc(-c4ncc(F)c5[nH]ccc45)ccc3C2=O)C(=O)N1` (centres unmarked) [Example 11, 3-(5-{7-fluoro-1H-pyrrolo[3,2-c]pyridin-4-yl}-1-oxo-2,3-dihydro-1H-isoindol-2-yl)piperidine-2,6-dione], the DC50 was 0.042 µM in test [1] and 0.097 µM in test [2].

Take `O=C1CCC(N2Cc3cc(-c4nccc5ccc(F)cc45)ccc3C2=O)C(=O)N1` (centres unmarked) [Example 19, 3-[5-(7-fluoroisoquinolin-1-yl)-1-oxo-2,3-dihydro-1H-isoindol-2-yl]piperidine-2,6-dione]: the DC50 came to 0.03 µM in test [1] and 0.14 µM in test [2].

For the compound `N#Cc1ccc(-c2ccc3c(c2)CN(C2CCC(=O)NC2=O)C3=O)nc1N` (centres unmarked) [Example 166, 2-amino-6-(2-(2,6-dioxopiperidin-3-yl)-1-oxoisoindolin-5-yl)nicotinonitrile], the DC50 is 0.02 µM in test [1] and at least 20 µM in test [2].

`COc1cc(N)nc(-c2ccc3c(c2)CN(C2CCC(=O)NC2=O)C3=O)c1` (centres unmarked) [Example 164, 3-(5-(6-amino-4-methoxypyridin-2-yl)-1-oxoisoindolin-2-yl)piperidine-2,6-dione]: the DC50 is 0.04 µM in test [1] and at least 20 µM in test [2].

For the compound `CC(=O)Nc1cc2ccccc2c(-c2ccc3c(c2)CN([C@H]2CCC(=O)NC2=O)C3=O)n1` [Example 124, (S)—N-(1-(2-(2,6-dioxopiperidin-3-yl)-1-oxoisoindolin-5-yl)isoquinolin-3-yl)acetamide], the DC50 in test [1] was 0.08 µM; in test [2], at least 20 µM.

For `CCC(C)Nc1nc2ccc(-c3ccc4c(c3)CN(C3CCC(=O)NC3=O)C4=O)nc2s1` (centres unmarked) [Example 10, 3-(5-{2-[(butan-2-yl)amino]-[1,3]thiazolo[5,4-b]pyridin-5-yl}-1-oxo-2,3-dihydro-1H-isoindol-2-yl)piperidine-2,6-dione], the figures for the DC50 in test [1] and in test [2] were 0.1 µM and above 20 µM, respectively.

Consider `CC(C)c1cc(N)nc(-c2ccc3c(c2)CN(C2CCC(=O)NC2=O)C3=O)c1C#N` (centres unmarked) [Example 179, 6-amino-2-(2-(2,6-dioxopiperidin-3-yl)-1-oxoisoindolin-5-yl)-4-isopropylnicotinonitrile], for which the DC50 in test [1] and in test [2] was at least 10 µM each time.

On to `O=C1CCC(N2Cc3cc(-c4cc5c(ccn5Cc5ccccc5)cn4)ccc3C2=O)C(=O)N1` (centres unmarked) [Example 158, 3-(5-{1-Benzyl-1H-pyrrolo[3,2-c]pyridin-6-yl}-1-oxo-2,3-dihydro-1H-isoindol-2-yl) piperidine-2,6-dione], for which the DC50 in test [1] was 0.02 µM; in test [2] it was at least 10 µM.

With `O=C1CCC(N2Cc3cc(-c4ccc5ccc(Cl)cc5n4)ccc3C2=O)C(=O)N1` (centres unmarked) [Example 28, 3-[5-(7-chloroquinolin-2-yl)-1-oxo-2,3-dihydro-1H-isoindol-2-yl]piperidine-2,6-dione], the figures for the DC50 in test [1] and in test [2] were 0.057 µM and above 20 µM, respectively.

`O=C1CCC(N2Cc3cc(-c4ncccc4CO)ccc3C2=O)C(=O)N1` (centres unmarked) [Example 107, 3-(5-(3-(hydroxymethyl)pyridin-2-yl)-1-oxoisoindolin-2-yl)piperidine-2,6-dione]: the DC50 in test [1] is 1.13 µM; in test [2], at least 10 µM.

For `CN(C)c1nc(-c2ccc3c(c2)CN(C2CCC(=O)NC2=O)C3=O)cc2ccccc12` (centres unmarked) [Example 49, 3-{5-[1-(Dimethylamino)isoquinolin-3-yl]-1-oxo-2,3-dihydro-1H-isoindol-2-yl}piperidine-2,6-dione], the DC50 is 0.037 µM in test [1] and above 20 µM in test [2].

For `Nc1nc(-c2ccc3c(c2)CN(C2CCC(=O)NC2=O)C3=O)nc2nc[nH]c12` (centres unmarked) [Example 44, 3-[5-(6-amino-7H-purin-2-yl)-1-oxo-2,3-dihydro-1H-isoindol-2-yl]piperidine-2,6-dione], the values for the DC50 in test [1] and in test [2] were 0.098 µM and above 20 µM, respectively.

For the compound `O=C1CCC(N2Cc3cc(-c4nc5ccccc5nc4-c4ccccc4)ccc3C2=O)C(=O)N1` (centres unmarked) [Example 99, 3-(1-oxo-5-(3-phenylquinoxalin-2-yl)isoindolin-2-yl)piperidine-2,6-dione], the DC50 in test [1] is 0.34 µM; in test [2] it was at least 20 µM.

For `N#Cc1cc(C2CC2)c(-c2ccc3c(c2)CN(C2CCC(=O)NC2=O)C3=O)nc1N` (centres unmarked) [Example 183, 2-amino-5-cyclopropyl-6-(2-(2,6-dioxopiperidin-3-yl)-1-oxoisoindolin-5-yl) nicotinonitrile], the figures for the DC50 in test [1] and in test [2] were 0.05 µM and at least 10 µM, respectively.

As for `Nc1cncc(-c2ccc3c(c2)CN(C2CCC(=O)NC2=O)C3=O)n1` (centres unmarked) [Example 142, 3-(5-(6-aminopyrazin-2-yl)-1-oxoisoindolin-2-yl)piperidine-2,6-dione], the DC50 is 1.35 µM in test [1] and at least 20 µM in test [2].

For `O=C1CCC(N2Cc3cc(-c4cc5ccccc5c(=O)[nH]4)ccc3C2=O)C(=O)N1` (centres unmarked) [Example 157, 3-[1-Oxo-5-(1-oxo-1,2-dihydroisoquinolin-3-yl)-2,3-dihydro-1H-isoindol-2-yl]piperidine-2,6-dione], the values for the DC50 in test [1] and in test [2] were 0.11 µM and at least 20 µM, respectively.

`O=C1CCC(N2Cc3cc(-c4nccc5[nH]ccc45)ccc3C2=O)C(=O)N1` (centres unmarked) [Example 160, 3-(1-oxo-5-(1H-pyrrolo[3,2-c]pyridin-4-yl)isoindolin-2-yl)piperidine-2,6-dione]: the DC50 in test [1] was 0.07 µM; in test [2] it was at least 20 µM.
